Results on two test systems are retold here after the supplement of paper PMC6045584.

± gives the standard deviation of the averaged measurements.

Compound in assay [1]: T1, CN(Cc1cnc2nc(N)nc(N)c2n1)c1ccc(C(=O)N[C@@H](CCC(=O)O)C(=O)O)cc1 [METHOTREXATE]
Briefly: area under dose-response curve of surviving fraction (unscaled, Aref=0) (surviving fraction x log10(nM)); higher = more resistant. The settings on record: exposure time: 5 days; dose range 0.5-1000 nM. A digest of the protocol: (§1)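 Tumour cell lines in 384-well plates were exposed to eight inhibitor concentrations, from 0.5 to 1000 nM, for five days, and viability was read by CellTiter-Glo luminescence in three screens per line. Signals were normalised to DMSO-only wells, and 3-parameter logistic regression in the drc R package fitted dose-response survival curves to the surviving fractions. Area under the curve is given as the unscaled activity area. That area is taken over log10 dose with Aref = 0.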

Compound in assay [2]: T2, CO[C@H]1C[C@@H]2CC[C@@H](C)[C@@](O)(O2)C(=O)C(=O)N2CCCC[C@H]2C(=O)O[C@H]([C@H](C)C[C@@H]2CC[C@@H](OCCO)[C@H](OC)C2)CC(=O)[C@H](C)/C=C(\C)[C@@H](O)[C@@H](OC)C(=O)[C@H](C)C[C@H](C)/C=C/C=C/C=C/1C [EVEROLIMUS]
The description is as above. The settings on record: exposure time: 5 days; dose range 0.5-1000 nM. A digest of the protocol: as §1

Compound in assay [3]: T3, C#Cc1cccc(Nc2ncnc3cc(OCCOC)c(OCCOC)cc23)c1 [ERLOTINIB]
Described as above. Particulars: exposure time: 5 days; dose range 0.5-1000 nM. In outline:
as §1

Compound in the next assay: Nc1ccn([C@@H]2O[C@H](CO)[C@@H](O)C2(F)F)c(=O)n1 [GEMCITABINE]
The assay is described as above. Particulars: exposure time: 5 days; dose range 0.5-1000 nM. A digest of the protocol: as §1

Compound in assay [4]: T4, NC1(c2ccc(-c3nc4ccn5c(=O)[nH]nc5c4cc3-c3ccccc3)cc2)CCC1 [MK2206]
The assay is described as above. Particulars: exposure time: 5 days; dose range 0.5-1000 nM. A digest of the protocol:
as §1

Compound in assay [5]: T1, METHOTREXATE
Briefly: surviving fraction relative to DMSO-only wells; higher = less growth inhibition. Particulars: exposure time: 5 days. A digest of the protocol:
(§2)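 Tumour cell lines were seeded in log phase at 250–500 cells per well into 384-well plates. Starting 24 hours later, inhibitors were present continuously for five days at 0.5, 1, 5, 10, 50, 100, 500 and 1000 nM. Surviving fraction, from CellTiter-Glo luminescence, is normalised to the median of DMSO-only wells. Three screens per line were required, with replicate Pearson r >0.7 and median Z' >0.3 for a line to be kept.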

Compound in assay [6]: T2, EVEROLIMUS
The description is as above. Particulars: exposure time: 5 days. In outline:
as §2

Compound in assay [7]: T3, ERLOTINIB
The assay is described as above. Particulars: exposure time: 5 days. A digest of the protocol:
as §2

Compound in assay [8]: T4, MK2206
The assay is described as above. The settings on record: exposure time: 5 days. In outline:
as §2

Compound in assay [9]: O=C(NOCC1CC1)c1ccc(F)c(F)c1Nc1ccc(I)cc1Cl
Briefly: area under dose-response curve of surviving fraction (unscaled, Aref=0) (surviving fraction x log10(nM)); higher = more resistant. The settings on record: exposure time: 5 days; dose range 0.5-1000 nM. In outline:
as §1

Compound in a further assay: COc1cc([C@@H]2c3cc4c(cc3[C@@H](O[C@@H]3O[C@@H]5CO[C@@H](C)O[C@H]5[C@H](O)[C@H]3O)[C@H]3COC(=O)[C@H]23)OCO4)cc(OC)c1O [ETOPOSIDE]
Described as above. Particulars: exposure time: 5 days; dose range 0.5-1000 nM. A digest of the protocol:
as §1

Compound in a further assay: CCC1=C[C@@H]2CN(C1)Cc1c([nH]c3ccccc13)[C@@](C(=O)OC)(c1cc3c(cc1OC)N(C)[C@H]1[C@@](O)(C(=O)OC)[C@H](OC(C)=O)[C@]4(CC)C=CCN5CC[C@]31[C@@H]54)C2 [VINORELBINE]
The description is as above. The settings on record: exposure time: 5 days; dose range 0.5-1000 nM. In outline: as §1

Compound in another assay: CCCS(=O)(=O)Nc1ccc(F)c(C(=O)c2c[nH]c3ncc(Cl)cc23)c1F [PLX-4720]
Described as above. The settings on record: exposure time: 5 days; dose range 0.5-1000 nM. In outline: as §1

Compound in a further assay: CCN(CC)CCNC(=O)c1c(C)[nH]c(/C=C2\C(=O)Nc3ccc(F)cc32)c1C [SUNITINIB]
Described as above. Particulars: exposure time: 5 days; dose range 0.5-1000 nM. In outline:
as §1

Compound in the next assay: COc1cc(CCc2cc(NC(=O)c3ccc(N4CC(C)NC(C)C4)cc3)n[nH]2)cc(OC)c1 [AZD4547]
The description is as above. The settings on record: exposure time: 5 days; dose range 0.5-1000 nM. A digest of the protocol:
as §1

Compound in assay [10]: Cc1nc(Nc2n[nH]c3c2CN(C(=O)N[C@H](CN(C)C)c2ccccc2)C3(C)C)c2sccc2n1
The assay is described as above. Particulars: exposure time: 5 days; dose range 0.5-1000 nM. In outline:
as §1

Take CCK81 LARGE INTESTINE: the “area under dose-response curve” value is 2.37 in the assay with METHOTREXATE [1]; 2.28 with EVEROLIMUS [2]; 2.36 with ERLOTINIB [3]; 1.48 in the assay with GEMCITABINE; 2.67 in the assay with MK2206 [4]. Also, the surviving fraction with METHOTREXATE [5] (0.5 nM) is 0.75 ± 0.13; with METHOTREXATE [5] (1 nM) it was 0.843 ± 0.061; with METHOTREXATE [5] (5 nM) it was 0.716 ± 0.15; in the assay with METHOTREXATE [5] (10 nM), 0.697 ± 0.029; with METHOTREXATE [5] (50 nM), 0.701 ± 0.054; with METHOTREXATE [5] (100 nM), 0.663 ± 0.083. For the same test system, the surviving fraction stood at 0.697 ± 0.077 with METHOTREXATE [5] (500 nM); 0.714 ± 0.095 with METHOTREXATE [5] (1000 nM); 0.812 ± 0.075 with EVEROLIMUS [6] (0.5 nM); 0.754 ± 0.031 with EVEROLIMUS [6] (1 nM); 0.701 ± 0.11 with EVEROLIMUS [6] (5 nM); 0.711 ± 0.14 in the assay with EVEROLIMUS [6] (10 nM). Moreover, the surviving fraction with EVEROLIMUS [6] (50 nM) was found to be 0.715 ± 0.041; in the assay with EVEROLIMUS [6] (100 nM) it was 0.756 ± 0.048; with EVEROLIMUS [6] (500 nM), 0.551 ± 0.1; with EVEROLIMUS [6] (1000 nM), 0.5123 ± 0.004; in the assay with ERLOTINIB [7] (0.5 nM), 0.779 ± 0.2; with ERLOTINIB [7] (5 nM), 0.794 ± 0.077. Also, the surviving fraction with ERLOTINIB [7] (10 nM) was determined as 0.774 ± 0.13; with ERLOTINIB [7] (50 nM), 0.774 ± 0.11; with ERLOTINIB [7] (100 nM), 0.749 ± 0.065; in the assay with ERLOTINIB [7] (500 nM) it was 0.19 ± 0.012; with ERLOTINIB [7] (1000 nM), 0.78 ± 0.031; with MK2206 [8] (0.5 nM), 0.868 ± 0.21. Further, the surviving fraction with MK2206 [8] (1 nM) turned out to be 0.793 ± 0.089; in the assay with MK2206 [8] (5 nM) it was 0.751 ± 0.14; with MK2206 [8] (10 nM) it was 0.809 ± 0.053; in the assay with MK2206 [8] (50 nM), 0.728 ± 0.075; with MK2206 [8] (100 nM), 0.798 ± 0.098; with MK2206 [8] (500 nM) it was 0.944 ± 0.13. In addition, the surviving fraction with MK2206 [8] (1000 nM) was 0.806 ± 0.049.

Regarding HS57T LUNG, the “area under dose-response curve” value was determined as 2.83 in assay [9]; 2.04 in the assay with METHOTREXATE [1]; 1.54 with EVEROLIMUS [2]; 2.88 in the assay with ETOPOSIDE; 1.21 with VINORELBINE; 3.44 with ERLOTINIB [3]. In addition, the “area under dose-response curve” value with GEMCITABINE is 1.27; with MK2206 [4], 3.09; in the assay with PLX-4720, 3.1; with SUNITINIB, 2.84; with AZD4547, 2.66; in [10], 1.13.
